Data set [1] relates to Influenza A/California/04/2009 (H1N1). Also on record: species or system mice. Conditions: mouse, in vivo.
For data set [2] the following is noted: cited from earlier work.

On to `CCOC(=O)C1=C[C@@H](OC(CC)CC)[C@H](NC(C)=O)[C@@H](N)C1` [Oseltamivir], for which the “mean peak weight loss” value in data set [1] is given as −32%.
Turning to “2′-3″cyclic guanosine monophosphate adenosine monophosphate [cGAMP]”, the in vivo half-life in data set [2] was around 35 min.

These data come from US20230233674A1 (priority 2022, published 2023).
